This note sets out measurements from patent publication US6436948B1, “Method for the treatment of psoriasis and genital warts” (priority 1995, dated 2002).

For series [1], the system named is 2.2.15 line. The series can be described thus: In vitro cytotoxicity, methylene blue assay / cell count: 2.2.15. The conditions noted are these: three generations, mean ± standard deviation of five experiments, read-out: ID50 (the source's name). It counts as cell-based.
Method: Cells in logarithmic growth were plated at a density of 5000 cells/mL/well in 24-well plates. Drugs were added to the cells at different dosages and cultures were maintained for a period of three generations. At the end of this time, methylene blue assays were performed and/or cell numbers were directly counted. […] IC50 values were determined by interpolation of the plotted data. Each value shown is the mean± standard deviation of five experiments with each data point done in duplicate.
HepG2 cells originate from hepatocellular carcinoma and the 2.2.15 line is derived from HepG2 cells which were transfected with a copy of the hepatitis B virus genome.
Series [2] concerns DU-145 prostate carcinoma line. The series can be described thus: In vitro cytotoxicity, methylene blue assay / cell count: DU-145. The conditions noted are these: read-out: ID50 (the source's name). It counts as cell-based.
The test system of series [3] is tumor cell lines tested. The series can be described thus: In vitro cytotoxicity, statement on all tumor cell lines tested. The conditions noted are these: all of the tumor cell lines tested. Format: cell-based.
For series [4], the system named is PC-3 prostate carcinoma line. The series can be described thus: In vitro cytotoxicity, methylene blue assay / cell count: PC-3. It counts as cell-based. Conditions: three generations, mean ± standard deviation of five experiments, read-out: ID50 (the source's name).
The subject of series [5] is CEM cells. Nature of the series: In vitro cytotoxicity, methylene blue assay / cell count: CEM. The conditions noted are these: three generations, mean ± standard deviation of five experiments, read-out: ID50 (the source's name). It counts as cell-based.
The subject of series [6] is KB nasopharyngeal carcinoma cell line. The series can be described thus: In vitro cytotoxicity, methylene blue assay / cell count: KB. It counts as cell-based. Conditions: three generations, mean ± standard deviation of five experiments, read-out: ID50 (the source's name).
The subject of series [7] is HepG2 cells. The series can be described thus: In vitro cytotoxicity, methylene blue assay / cell count: HepG2. It counts as cell-based. Conditions: three generations, mean ± standard deviation of five experiments, read-out: ID50 (the source's name).
Series [8] has as its system DU-145 tumors. Nature of the series: DU-145 xenograft in NCr nude mice. It counts as in vivo, human. Conditions: 25 mg/kg twice a day on days 0 through 4, NCr nude mice. Here is the method: (§1) FIG. 5 is a graph of the inhibition of human tumor growth by […]. Three to six week old NCr nude mice were inoculated subcutaneously in each flank with 2×10^6 HepG2 or DU-145 cells. Treatment was started when the tumors were in an advanced stage of growth. Drugs were administered twice a day on days 0 through 4 and tumor sizes were measured on the indicated days. […] Each data point represents the means±SD of 10 tumors in graph A and six tumors in graph B.
(§2) Three to six-week-old NCr nude mice (Taconic Immunodeficient Mice and Rats) were inoculated s.c. in each flank with 2×10^6HepG2 or DU-145 cells and tumors were allowed to grow. Treatment was started when the tumors were 100-250mg as determined by caliper measurement and calculated according to the formula:
(§3) Tumor Weight(mg)=length(mm)×width(mm^2)÷2
(§4) Drugs were given at the indicated doses on days 0 through 4 and tumor sizes were measured every several days. The tumor growth curves were generated as described in Bell, et al., Cancer(phila.) 36:2437-2440 (1975), and are illustrated in FIGS. 5(a) and 5(b).

In series [9] the test system is NCr nude mice. Format: in vivo. Conditions: mouse, in vivo, 25 mg/kg. How it is done: as §4
Toxicity was evaluated by changes in body weight.

The test system of series [10] is HepG2 tumors. Nature of the series: HepG2 xenograft in NCr nude mice. The conditions noted are these: 25 mg/kg twice a day on days 0 through 4, NCr nude mice. Format: in vivo, human. Here is the method: as §1, §2, §3, §4

Read-outs that look alike come from different tables or passages of the source.

Regarding `O=c1ccn(C2COC(CO)O2)c(=O)[nH]1` (single isomer, unassigned; (-)) [(−)-OddU], the IC50 in series [1] was above 30000 nM; in series [2] (three generations, mean ± standard deviation of five experiments), above 30000 nM; in series [4], above 30000 nM; in series [5], above 30000 nM; in [6], above 30000 nM; in series [7], above 30000 nM. In addition, the Cytotoxicity in words entry in [3] is recorded as “not toxic”.

Regarding `Nc1ccn([C@@H]2O[C@H](CO)[C@@H](O)[C@@H]2O)c(=O)n1` [AraC, Cytosine arabinoside], the “Effect on DU-145 tumors in words” value in series [8] is given as “ineffective”. For the same molecule, the IC50 was determined as 170 ± 35 nM in series [2] (Homo sapiens); 200 ± 78 nM in [4]; 30 ± 10 nM in series [5] (Homo sapiens, CCRF-CEM); 152 ± 10 nM in series [6]; 125 ± 13 nM in [7] (Homo sapiens). For the same molecule, the “Toxicity as indicated by weight loss of the animals” value in series [9] is listed as “equally toxic”. Also, the “Effect on HepG2 tumors in words” value in series [10] is “ineffective”; in series [10] (listed as arac) it was “inactive”.
